Data published in patent US4663321A, “Triazolobenzodiazepines and pharmaceutical use” (Merck & Co., Inc., priority 1985, dated 1987).
Read-outs that look alike come from different tables or passages of the source. One block for each compound: values may come before it. Square brackets hold non-standard residues; d marks the D form. Peptide text beside a SMILES is read from it. * marks the point of attachment. sY = N[C@@H](Cc1ccc(OS(=O)(=O)O)cc1)C(=O)O; Cbz = O=C(OCc1ccccc1)*; Boc = CC(C)(C)OC(=O)*

Tests used:
[1] = biological target: T1, CCK receptor (Rattus norvegicus, UniProt P30551); experiment: CCK receptor binding (pancreas), inhibition of 125I-CCK-33 binding; set-up: species or system rat (Male Sprague-Dawley); conditions: for effect on the 125I-CCK receptor binding assay: protease inhibitor additives of the assay buffer
T1 construct: The whole pancreas was dissected free of fat tissue and was homogenized; from tissue; host or cells: rat (Sprague-Dawley) whole pancreas membranes
T1 sequence (P30551 1-444): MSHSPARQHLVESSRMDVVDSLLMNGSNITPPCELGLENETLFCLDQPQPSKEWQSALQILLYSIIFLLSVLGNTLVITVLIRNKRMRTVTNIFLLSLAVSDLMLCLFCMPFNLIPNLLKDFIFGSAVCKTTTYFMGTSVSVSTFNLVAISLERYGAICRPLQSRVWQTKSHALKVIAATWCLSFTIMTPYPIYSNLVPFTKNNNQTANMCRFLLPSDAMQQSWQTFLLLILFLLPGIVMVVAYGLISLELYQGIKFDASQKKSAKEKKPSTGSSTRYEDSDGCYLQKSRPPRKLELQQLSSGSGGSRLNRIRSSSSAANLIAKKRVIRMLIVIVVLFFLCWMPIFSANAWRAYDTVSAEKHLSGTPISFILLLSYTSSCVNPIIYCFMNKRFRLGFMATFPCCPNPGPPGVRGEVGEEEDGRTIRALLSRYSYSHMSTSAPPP
Description: 1. CCK receptor binding (pancreas)
CCK-33 was radiolabeled with ^125 I-Bolton Hunter reagent (2000 Ci/mmole) as described by Sankara et al. (J. Biol. Chem. 254: 9349-9351, 1979). Receptor binding was performed according to Innis and Snyder (Proc. Natl. Acad. Sci. 77: 6917-6921, 1980) with the minor modification of adding the additional protease inhibitors, phenylmethane sulfonyl fluoride and o-phenanthroline. The latter two compounds have no effect on the ^125 I-CCK receptor binding assay.
Male Sprague-Dawley rats (200-350 g) were sacrificed by decapitation. The whole pancreas was dissected free of fat tissue and was homogenized in 20 volumes of ice-cold 50 mM. Tris HCl (pH 7.7 at 25° C.) with a Brinkmann Polytron PT 10. The homogenates were centrifuged at 48,000 g for 10 min. Pellets were resuspended in Tris Buffer, centrifuged as above and resuspended in 200 volumes of binding assay buffer (50 mM Tris HCl, pH 7.7 at 25° C., 5 mM dithiothrietol, 0.1 mM bacitracin, 1.2 mM phenylmethane sulfonyl fluoride and 0.5 mM o-phenanthroline). […] All assays were run in duplicate or triplicate. The reaction mixtures were incubated at 37° C. for 30 minutes and centrifuged in a Beckman Microfuge (4 minutes) immediately after adding 1 ml of ice-cold incubation buffer. The supernatant was aspirated and discarded, pellets were counted with a Beckman gamma 5000. For Scatchard analysis (Ann. N.Y. Acad. Sci. 51: 660, 1949), ^125 I-CCK-33 was progressively diluted with increasing concentrations of CCK-33.

[2] = biological target: T2, CCK receptor (Cavia porcellus, UniProt H0VZC5); experiment: CCK receptor binding (brain), inhibition of 125I-CCK-33 binding; set-up: species or system guinea pig (Male Hartley); conditions: 125I-CCK-33, guinea pig cerebral cortex, 25° C., 2 hours
T2 construct: Cerebral cortex was dissected and used as a receptor source; from tissue; host or cells: guinea pig (Hartley) cerebral cortex membranes
T2 sequence (H0VZC5 entry or part of it): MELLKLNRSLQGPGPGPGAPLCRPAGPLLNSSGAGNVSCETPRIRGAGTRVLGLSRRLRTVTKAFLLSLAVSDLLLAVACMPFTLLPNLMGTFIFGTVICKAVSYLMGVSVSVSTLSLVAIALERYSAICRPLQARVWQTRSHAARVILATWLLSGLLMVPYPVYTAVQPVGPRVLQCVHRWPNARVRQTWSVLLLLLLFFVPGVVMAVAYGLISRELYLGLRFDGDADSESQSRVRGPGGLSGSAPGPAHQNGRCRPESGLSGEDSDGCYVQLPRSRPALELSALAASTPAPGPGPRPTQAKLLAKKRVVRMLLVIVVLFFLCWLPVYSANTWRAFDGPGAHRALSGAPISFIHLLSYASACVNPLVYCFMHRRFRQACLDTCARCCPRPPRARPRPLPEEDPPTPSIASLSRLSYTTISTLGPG
Description: 2. CCK Receptor Binding (Brain)
CCK-33 was radiolabeled and the binding was performed according to the description for the pancreas method with modification according to Saito et al. (J. Neurochem. 37, 483-490, 1981).
Male Hartley guinea pigs (300-500 g) were sacrificed by decapitation and the brains were removed and placed in ice-cold 50 mM. Tris HCl plus 7.58 g/l Trizma-7.4 (pH 7.4 at 25° C.). Cerebral cortex was dissected and used as a receptor source. Each gram of fresh guinea pig brain tissue was homogenized in 10 ml of Tris Trizma buffer with a Brinkman polytron PT-10. The homogenates were centrifuged at 42,000 g for 15 min. […] All assays were run in duplicate or triplicate. The reaction mixtures were incubated at 25° C. for 2 hours and centrifuged in a Beckman Microfuge (4 minutes) immediately after adding 1 ml of ice-cold incubation buffer. The supernatant was aspirated and discarded, pellets were counted with a Beckman gamma 5000.

[3] = tested on: CCK receptor; conditions: prior art CCK antagonists; cited from earlier work
[4] = tested on: gastrin receptor; conditions: cited from earlier work
[5] = read-out: IC50 125I-CCK Pancreas
[6] = 125I-CCK-33, rat pancreas membranes, 37° C., 30 minutes, read-out: IC50 125I-CCK Pancreas

Compound: O=C(NC1N=C(c2ccccc2F)c2ccccc2-n2cnnc21)OCc1ccccc1 (stereo not drawn) [Compound 7, 6-(2-Fluorophenyl)-4-benzyloxycarbonylamino-4H-s-triazolo[4,3-a]-1,4-benzodiazepine]
IC50 [1, 5]: 0.22 µM
IC50 [2]: 8 µM

Compound: CSCC[C@H](NC(=O)OC(C)(C)C)C(=O)N[C@@H](CC(=O)O)C(=O)N[C@@H](Cc1ccccc1)C(N)=O [Boc-Met-Asp-Phe-NH2] (Boc-Met-Asp-Phe-NH2)
CCK antagonist activity [3]: can function as CCK antagonists

Compound: O=S(=O)(F)Cc1ccccc1 [phenylmethane sulfonyl fluoride, reference compound]
effect on the 125I-CCK receptor binding assay [1]: no effect

effect on the 125I-CCK receptor binding assay [1]: no effect
Compound: c1cnc2c(c1)ccc1cccnc12 [o-phenanthroline, reference compound]

Compound: Fc1ccccc1C1=N[C@H](Cc2c[nH]c3ccccc23)c2nnc(C(Cl)(Cl)Cl)n2-c2ccccc21 [Compound 6, 1-Trichloromethyl-4(R)-(3'-indolyl)methyl-6-(2-fluorophenyl)-4H-S-triazolo[4,3-a]-1,4-benzodiazepine solvate]
IC50 [1, 6]: 25 µM
IC50 [2]: > 100 µM

Compound: Cc1nnc2n1-c1ccccc1C(c1ccccc1F)=N[C@@H]2Cc1c[nH]c2ccccc12 [Compound 2, 6-(2-Fluorophenyl)-4-(R)-4-(3'-indolyl)methyl-1-methyl-4H-s-triazolo[4,3-a]-1,4-benzodiazepine]
IC50 [1, 6]: 0.3 µM
IC50 [2]: 38.6 µM

Compound: Cc1nnc2n1-c1ccccc1C(c1ccccc1F)=NC2NC(=O)c1cc2ccccc2[nH]1 (stereo not drawn) [Compound 10, 6-(2-Fluorophenyl)-4-(indol-2-yl)carbonylamino-1-methyl-4H-s-triazolo[4,3-a]-1,4-benzodiazepine]
IC50 [1, 6]: 0.0004 µM
IC50 [2]: 0.066 µM

Compound: O=c1[nH]nc2n1-c1ccccc1C(c1ccccc1F)=N[C@@H]2Cc1c[nH]c2ccccc12 [Compound 5, 2,4-Dihydro-3(R)-(3'-indolyl)methyl-6-(2-fluorophenyl)-1H-S-triazolo-[4,3-a]-1,4-benzodiazepin-1-one solvate]
IC50 [1]: 3.1 µM
IC50 [2]: 63 µM

Compound: O=C(NC1N=C(c2ccccc2F)c2ccccc2-n2cnnc21)c1cc2ccccc2[nH]1 (stereo not drawn) [Compound 9, 6-(2-Fluorophenyl)-4-(indol-2-yl)carbonylamino-4H-s-triazolo[4,3-a]-1,4-benzodiazepine]
IC50 [1, 6]: 0.0009 µM
IC50 [2]: 0.053 µM

Compound: CCCN(CCC)C(=O)C(CCC(=O)O)NC(=O)c1ccccc1 (stereo not drawn) [proglumide]
in vitro gastrin antagonism [4]: Very weak in vitro antagonists

Compound: CN(C)Cc1nnc2n1-c1ccccc1C(c1ccccc1F)=N[C@@H]2Cc1c[nH]c2ccccc12 [Compound 4, 6-(2-Fluorophenyl)-4(R)-4-(3'-indolyl)methyl-1-dimethylaminomethyl-4H-s-triazolo[4,3-a]-1,4-benzodiazapine]
IC50 [1, 5]: 14 µM

Compound: CSCC[C@H](N)C(=O)N[C@@H](CC(=O)O)C(=O)N[C@@H](Cc1ccccc1)C(N)=O [Met-Asp-Phe-NH2] (H-Met-Asp-Phe-NH2)
CCK antagonist activity [3]: can function as CCK antagonists

Compound: CCCC(=O)Nc1nc2c(ncn2[C@@H]2O[C@@H]3COP(=O)(O)O[C@H]3[C@H]2OC(=O)CCC)c(=O)[nH]1 [dibutyryl cyclic GMP]
CCK antagonist activity [3]: most potent

Compound: Fc1ccccc1C1=N[C@H](Cc2c[nH]c3ccccc23)c2nnc(-c3ccccc3)n2-c2ccccc21 [Compound 3, 6-(2-Fluorophenyl)-4(R)-4-(3'-indolyl)methyl-1-phenyl-4H-s-triazolo[4,3-a]-1,4-benzodiazepine]
IC50 [1, 5]: 22 µM

Compound: O=C(NC1N=C(c2ccccc2F)c2ccccc2-n2cnnc21)c1ccc(Cl)cc1 (stereo not drawn) [Compound 8, 6-(2-Fluorophenyl)-4-(4-chlorophenyl)carbonylamino-4H-s-triazolo[4,3-a]-1,4-benzodiazepine]
IC50 [1, 6]: 0.0044 µM
IC50 [2]: 9.3 µM

Compound: Fc1ccccc1C1=N[C@H](Cc2c[nH]c3ccccc23)c2nncn2-c2ccccc21 [Compound 1, 6-(2-Fluorophenyl)-4(R)-4-(3'-indolyl)methyl-4H-s-triazolo[4,3-a]-1,4-benzodiazepine]
IC50 [1, 6]: 0.2 µM

Compound: CSCC[C@H](NC(=O)[C@H](Cc1ccc(OS(=O)(=O)O)cc1)NC(=O)OCc1ccccc1)C(=O)NCC(=O)N[C@@H](Cc1c[nH]c2ccccc12)C(=O)N[C@@H](CCSC)C(=O)N[C@@H](CC(=O)O)C(N)=O [Cbz-Tyr(SO3 H)-Met-Gly-Trp-Met-Asp-NH2] (Cbz-[sY]MGWMD-NH2)
CCK antagonist activity [3]: can function as CCK antagonists
